According to BindingDB's records for patent WO2025049746 (Eikon Therapeutics, 2025):

Tests used:
[1] = biological target: Bifunctional 3'-5' exonuclease/ATP-dependent helicase WRN (Homo sapiens, UniProt Q14191); experiment: ADP-Glo Kinase Assay
Experimental: ATPase activity was measured using the ADP-Glo Kinase Assay following the manufacturers recommended protocol.

[2] = biological target: T1, Bifunctional 3'-5' exonuclease/ATP-dependent helicase WRN [480-1251] (UniProt Q14191); experiment: Biochemical Activity Assays
T1 construct: 480-1251
T1 sequence (Q14191 480-1251): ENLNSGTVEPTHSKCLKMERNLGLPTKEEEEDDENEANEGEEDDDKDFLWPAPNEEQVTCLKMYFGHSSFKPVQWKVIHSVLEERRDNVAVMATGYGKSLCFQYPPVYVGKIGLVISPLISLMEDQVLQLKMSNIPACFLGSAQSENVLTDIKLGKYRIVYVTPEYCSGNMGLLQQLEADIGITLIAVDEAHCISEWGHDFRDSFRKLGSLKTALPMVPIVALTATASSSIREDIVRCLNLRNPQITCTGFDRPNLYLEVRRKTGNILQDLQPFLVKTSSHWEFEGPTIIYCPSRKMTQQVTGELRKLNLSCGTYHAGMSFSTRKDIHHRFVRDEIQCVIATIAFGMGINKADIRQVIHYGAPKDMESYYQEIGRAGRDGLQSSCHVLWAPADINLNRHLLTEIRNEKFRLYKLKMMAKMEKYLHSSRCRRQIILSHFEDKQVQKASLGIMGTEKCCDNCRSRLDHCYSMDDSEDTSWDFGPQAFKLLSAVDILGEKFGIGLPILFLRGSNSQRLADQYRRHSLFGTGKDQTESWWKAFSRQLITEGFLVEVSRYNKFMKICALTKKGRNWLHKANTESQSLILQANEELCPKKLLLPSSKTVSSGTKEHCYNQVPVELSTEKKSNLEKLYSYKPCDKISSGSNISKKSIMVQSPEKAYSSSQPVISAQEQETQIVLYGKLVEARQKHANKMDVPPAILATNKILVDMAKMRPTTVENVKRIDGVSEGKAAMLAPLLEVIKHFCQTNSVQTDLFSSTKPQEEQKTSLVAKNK

Bifunctional 3'-5' exonuclease/ATP-dependent helicase WRN, sequence (Q14191 whole entry): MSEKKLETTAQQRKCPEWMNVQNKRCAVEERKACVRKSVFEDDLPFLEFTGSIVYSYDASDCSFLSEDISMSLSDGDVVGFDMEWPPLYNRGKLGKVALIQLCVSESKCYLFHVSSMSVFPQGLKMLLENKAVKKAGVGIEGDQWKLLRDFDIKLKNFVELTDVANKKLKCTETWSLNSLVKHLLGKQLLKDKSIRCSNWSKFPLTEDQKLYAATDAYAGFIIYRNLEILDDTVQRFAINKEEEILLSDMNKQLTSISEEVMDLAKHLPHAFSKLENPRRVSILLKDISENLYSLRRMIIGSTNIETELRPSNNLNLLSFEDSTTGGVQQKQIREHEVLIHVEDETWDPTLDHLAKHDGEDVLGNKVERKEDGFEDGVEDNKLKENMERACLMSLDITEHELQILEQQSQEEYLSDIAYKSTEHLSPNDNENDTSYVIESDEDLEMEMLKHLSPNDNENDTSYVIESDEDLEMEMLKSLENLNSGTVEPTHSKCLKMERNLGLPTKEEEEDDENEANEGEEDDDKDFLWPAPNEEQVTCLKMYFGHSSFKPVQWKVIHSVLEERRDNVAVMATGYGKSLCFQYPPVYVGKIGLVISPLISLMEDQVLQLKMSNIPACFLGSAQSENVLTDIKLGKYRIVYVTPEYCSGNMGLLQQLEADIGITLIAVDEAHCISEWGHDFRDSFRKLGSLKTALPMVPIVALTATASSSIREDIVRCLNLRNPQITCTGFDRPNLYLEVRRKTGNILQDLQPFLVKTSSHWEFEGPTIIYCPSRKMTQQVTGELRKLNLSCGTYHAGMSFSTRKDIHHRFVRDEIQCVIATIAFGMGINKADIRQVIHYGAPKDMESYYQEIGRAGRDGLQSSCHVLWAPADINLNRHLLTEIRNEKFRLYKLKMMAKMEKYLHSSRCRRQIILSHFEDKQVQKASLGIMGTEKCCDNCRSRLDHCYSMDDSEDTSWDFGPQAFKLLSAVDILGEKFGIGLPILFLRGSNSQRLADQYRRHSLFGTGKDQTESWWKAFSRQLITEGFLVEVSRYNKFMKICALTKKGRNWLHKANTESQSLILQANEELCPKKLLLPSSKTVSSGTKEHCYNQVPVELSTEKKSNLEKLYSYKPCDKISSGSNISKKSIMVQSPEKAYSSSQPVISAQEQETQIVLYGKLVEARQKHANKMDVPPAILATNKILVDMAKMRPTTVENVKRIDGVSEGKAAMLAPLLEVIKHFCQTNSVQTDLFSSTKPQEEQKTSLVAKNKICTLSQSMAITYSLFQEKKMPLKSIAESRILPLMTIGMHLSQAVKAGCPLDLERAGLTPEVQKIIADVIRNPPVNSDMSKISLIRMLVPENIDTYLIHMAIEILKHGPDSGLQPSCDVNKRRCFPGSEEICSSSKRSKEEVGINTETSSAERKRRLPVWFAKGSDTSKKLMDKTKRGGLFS

Row | IC50 [1] | IC50 [2] | Compound
1 | 83.9 nM | 56.9 nM | CCC1=C(N2CCN(C(=O)C3=C4NN=CC4CC=N3)CC2)C(=O)N2N=C(C3CCOCC3)NC2N1CC(=O)Nc1ccc(C(F)(F)F)cc1Cl (stereo unspecified) [WO2025049746, Example 41]
2 | 539 nM | 456 nM | CCc1c(N2CCN(C(=O)c3ncnc(C)c3O)CC2)c(=O)n2nc(C3CCC3)nc2n1CC(=O)Nc1ccc(C(F)(F)F)cc1C [WO2025049746, Example 79]
3 | 39.3 nM | 33.1 nM | CCc1c(N2CCN(C(=O)c3ncnc(C)c3O)CC2)c(=O)n2nc(-c3cnc4c(c3)COC4)nc2n1CC(=O)Nc1ccc(C(F)(F)F)cc1Cl [WO2025049746, Example 14]
4 | 387 nM | 159 nM | CCc1c(N2CCN(C(=O)c3ncnc(C)c3O)CC2)c(=O)n2nc(-c3ccc4c(c3)COC4)nc2n1CC(=O)Nc1ccc(C(F)(F)F)cc1OC1CC1 [WO2025049746, Example 416]
5 | 24 nM | 26 nM | CCc1c(N2CCN(C(=O)c3ncnc(C)c3O)CC2)c(=O)n2nc(-c3ccc4nn(C(F)F)cc4c3)nc2n1CC(=O)Nc1ccc(C(F)(F)F)cc1Cl [WO2025049746, Example 248]
6 | 6940 nM | 6910 nM | CCc1c(N2CCN(C(=O)c3ncnc(C)c3O)CC2)c(=O)n2c(C)c(-c3ccc4c(c3)COC4)nc2n1CC(=O)Nc1ccc(C(F)(F)F)cc1Cl [WO2025049746, Example 451]
7 | 68 nM | 58 nM | CCc1c(N2CCN(C(=O)c3ncnc(C)c3O)CC2)c(=O)n2nc(-c3cc4n(n3)CCCC4)nc2n1CC(=O)Nc1ccc(C(F)(F)F)cc1Cl [WO2025049746, Example 184]
8 | 32 nM | 26 nM | CCc1c(N2CCN(C(=O)c3ncnc(C)c3O)CC2)c(=O)n2nc(-c3ccc4c(c3)CCOC4)nc2n1C(F)(F)C(=O)Nc1ccc(C(F)(F)F)cc1Cl [WO2025049746, Example 402]
9 | 65 nM | 65 nM | CCc1c(N2CCN(C(=O)c3nsc(N4CCN(C)CC4)c3O)CC2)c(=O)n2nc(-c3ccc4c(c3)COC4)nc2n1CC(=O)Nc1ccc(C(F)(F)F)cc1Cl [WO2025049746, Example 443]
10 | 3960 nM | 3670 nM | CCc1c(N2CCN(C(=O)c3ncnc(C)c3O)CC2)c(=O)n2nc(C3=CCOCC3)nc2n1CC(=O)NC1CCC(F)(F)CC1 [WO2025049746, Example 351]
11 | 31 nM | 32 nM | CCc1c(N2CCN(C(=O)c3ncnc(C)c3O)CC2)c(=O)n2nc(-c3cc(F)c4nc(C)oc4c3)nc2n1CC(=O)Nc1ccc(C(F)(F)F)cc1Cl [WO2025049746, Example 297]
12 | 53 nM | 56 nM | CCc1c(N2CCN(C(=O)c3ncnc(C)c3O)CC2)c(=O)n2nc(-c3ccc4c(c3)COC43CCOCC3)nc2n1CC(=O)Nc1ccc(C(F)(F)F)cc1Cl [WO2025049746, Example 289]
13 | 250 nM | 240 nM | CCc1c(N2CCN(C(C)=O)CC2)c(=O)n2nc(-c3ccc4c(c3)OCO4)nc2n1CC(=O)Nc1ccc(C(F)(F)F)cc1Cl [WO2025049746, Example 89]
14 | 47 nM | 38 nM | CCc1c(N2CCN(C(=O)c3nc4n(c(=O)c3O)CCC4)CC2)c(=O)n2nc(-c3ccc4c(c3)COC4)nc2n1CC(=O)Nc1ccc(C(F)(F)F)cc1Cl [WO2025049746, Example 422]
15 | 47 nM | 56 nM | CCc1c(N2CCN(C(=O)c3ncnc(C)c3O)CC2)c(=O)n2nc(-c3cc(C)c4c(c3)COC4(C)C)nc2n1CC(=O)Nc1ccc(C(F)(F)F)cc1Cl [WO2025049746, Example 221]
16 | 506 nM | 419 nM | CCc1c(N2CCN(C(=O)c3ncnc(C)c3O)CC2)c(=O)n2nc(-c3ccc4c(c3)CCOC4)nc2n1CC(=O)Nc1ccc(SC(F)(F)F)cc1 [WO2025049746, Example 393]
17 | 25 nM | 24 nM | CCc1c(N2CCN(C(=O)c3ncnc(C)c3O)CC2)c(=O)n2nc(-c3ccc4c(c3)ncn4C)nc2n1CC(=O)Nc1ccc(C(F)(F)F)cc1Cl [WO2025049746, Example 254]
18 | 1790 nM | 1810 nM | Cc1ncnc(C(=O)N2CCN(c3c4n(c5nc(-c6ccc7c(c6)COC7(C)C)nn5c3=O)[C@H](C(=O)Nc3ccc(C(F)(F)F)cc3Cl)C[C@@H]4C)CC2)c1O [WO2025049746, Example 471]
19 | 130 nM | 68.4 nM | CCc1c(N2CCN(C(=O)c3cccc[n+]3[O-])CC2)c(=O)n2nc(C3=CCOCC3)nc2n1CC(=O)Nc1ccc(C(F)(F)F)cc1Cl [WO2025049746, Example 35]
20 | 51 nM | 34 nM | CCc1c(N2CCN(C(=O)c3ncnc(C)c3O)CC2)c(=O)n2nc(-c3cccc4c3OCCC4)nc2n1CC(=O)Nc1ccc(C(F)(F)F)cc1Cl [WO2025049746, Example 160]
21 | 26 nM | 25 nM | CCc1c(N2CCN(C(=O)c3ncnc(C)c3O)CC2)c(=O)n2nc(-c3ccn4nc(F)cc4c3)nc2n1CC(=O)Nc1ccc(C(F)(F)F)cc1Cl [WO2025049746, Example 251]
22 | 125 nM | 62.2 nM | CCc1c(N2CCN(C(=O)c3ccccc3NC(=O)c3ccn[nH]3)CC2)c(=O)n2nc(C3=CCOCC3)nc2n1CC(=O)Nc1ccc(C(F)(F)F)cc1Cl [WO2025049746, Example 40]

Row | IC50 [1] | IC50 [2] | Compound
23 | 168 nM | 165 nM | CCc1c(N2CCN(C(=O)c3ncnc(C)c3O)CC2)c(=O)n2nc(-c3cn4c(n3)COCC4)nc2n1CC(=O)Nc1ccc(C(F)(F)F)cc1Cl [WO2025049746, Example 153]
24 | 25 nM | 28 nM | CCc1c(N2CC[C@@H]3[C@@H]2CCCN3C(=O)c2ncnc(C)c2O)c(=O)n2nc(-c3ccc4c(c3)COC4)nc2n1CC(=O)Nc1ccc(C(F)(F)F)cc1Cl [WO2025049746, Example 438]
25 | 52 nM | 45 nM | CCc1c(N2CCN(C(=O)c3ncnc(C)c3O)CC2)c(=O)n2nc(-c3ccc4c(c3)C(=O)N(C)C4)nc2n1CC(=O)Nc1ccc(C(F)(F)F)cc1Cl [WO2025049746, Example 186]
26 | 68 nM | 83.3 nM | CCc1c(N2CCN(C(=O)c3nc4c(cc3OCc3ccc(OC)cc3)COCC4)CC2)c(=O)n2nc(-c3ccc4c(c3)COC4(C)C)nc2n1CC(=O)Nc1ccc(C(F)(F)F)cc1Cl [WO2025049746, Example 464]
27 | 170 nM | 75 nM | CCc1c(N2CCN(C(=O)c3ncnc(C)c3O)CC2)c(=O)n2nc(-c3ccc4c(c3)CCC4(F)F)nc2n1CC(=O)Nc1ccc(C(F)(F)F)cc1Cl [WO2025049746, Example 187]
28 | 19 nM | 18 nM | CCc1c(N2CCN(C(=O)c3ncnc(C)c3O)CC2)c(=O)n2nc(-c3ccc(S(=O)(=O)N4CCC4)cc3)nc2n1CC(=O)Nc1ccc(C(F)(F)F)cc1Cl [WO2025049746, Example 270]
29 | 6830 nM | 6000 nM | CCc1c(N2CCN(C(=O)c3ncnc(C)c3O)CC2)c(=O)n2nc(C3=CCOCC3)nc2n1CC(=O)NC1CC2C(C1)C2(F)F (stereo unspecified) [WO2025049746, Example 350]
30 | 1950 nM | 994 nM | CCc1c(N2CCN(C(=O)c3ncnc(C)c3O)CC2)c(=O)n2nc(C3=CCOCC3)nc2n1CC(=O)NC12CCC(C(F)(F)F)(CC1)CC2 [WO2025049746, Example 349]
31 | 43.3 nM | 26.9 nM | CCc1c(N2CCN(C(=O)c3nccc4nc[nH]c34)CC2)c(=O)n2nc(N(C)C)nc2n1CC(=O)Nc1ccc(C(F)(F)F)cc1Cl [WO2025049746, Example 80]
32 | 72 nM | 70 nM | CCc1c(N2CCN(C(=O)c3nsc(N4CCOCC4)c3O)CC2)c(=O)n2nc(-c3ccc4c(c3)COC4)nc2n1CC(=O)Nc1ccc(C(F)(F)F)cc1Cl [WO2025049746, Example 445]
33 | 88 nM | 75 nM | CCc1c(N2CCN(C(=O)c3nc4c(cc3O)OCCC4)CC2)c(=O)n2nc(-c3ccc4c(c3)COC4)nc2n1CC(=O)Nc1ccc(C(F)(F)F)cc1Cl [WO2025049746, Example 432]
34 | 381 nM | 320 nM | CCc1c(N2CCN(C(=O)c3nc4n(c(=O)c3O)CCOC4)CC2)c(=O)n2nc(N3C[C@H]4COC[C@H]4C3)nc2n1CC(=O)Nc1ccc(C(F)(F)F)cc1Cl [WO2025049746, Example 93]
35 | 468 nM | 396 nM | CCc1c(N2CCN(C(=O)c3ncnc(C)c3O)CC2)c(=O)n2nc(N(C)C)nc2n1CC(=O)Nc1ccc(SC(F)(F)F)cc1 [WO2025049746, Example 392]
36 | 48.8 nM | 28.9 nM | CCc1c(N2CCN(C(=O)c3nccc4nc[nH]c34)CC2)c(=O)n2nc(-c3ccc4c(c3)OCO4)nc2n1CC(=O)Nc1ccc(C(F)(F)F)cc1Cl [WO2025049746, Example 88]
37 | 41 nM | 32 nM | CCc1c(N2CCN(C(=O)c3ncnc(C)c3O)CC2)c(=O)n2nc(-c3ccc4c(c3)CCO4)nc2n1CC(=O)Nc1ccc(SC(F)(F)F)cc1Cl [WO2025049746, Example 410]
38 | 31 nM | 25.8 nM | CCc1c(N2CCN(C(=O)c3cn(C)[nH]c3=O)CC2)c(=O)n2nc(C3=CCOCC3)nc2n1CC(=O)Nc1ccc(C(F)(F)F)cc1Cl [WO2025049746, Example 33]
39 | 19 nM | 18 nM | CCc1c(N2CCN(C(=O)c3ncnc(C)c3O)CC2)c(=O)n2nc(-c3cc4ccnn4cc3F)nc2n1CC(=O)Nc1ccc(C(F)(F)F)cc1Cl [WO2025049746, Example 242]
40 | 24 nM | 23 nM | CCc1c(N2CCN(C(=O)c3ncnc(C)c3O)CC2)c(=O)n2nc(-c3cc4c(cc3F)[C@@H](OC)CC4)nc2n1CC(=O)Nc1ccc(C(F)(F)F)cc1Cl [WO2025049746, Example 244]
41 | 22 nM | 21 nM | CCc1c(N2CCN(C(=O)c3ncnc(C)c3O)CC2)c(=O)n2nc(-c3cc4c(cc3F)COCC4)nc2n1CC(=O)Nc1ccc(C(F)(F)F)cc1Cl [WO2025049746, Example 260]
42 | 29700 nM | 2340 nM | CCc1c(N2CCC(N(C)C(=O)c3ncnc(C)c3O)C2)c(=O)n2nc(C3=CCOCC3)nc2n1CC(=O)Nc1ccc(C(F)(F)F)cc1Cl (stereo unspecified) [WO2025049746, Example 339]
43 | 29700 nM | 29700 nM | CCc1c(N2CCN(C(=O)c3ncnc(C)c3O)CC2)cn2nc(C3=CCOCC3)nc2c1CC(=O)Nc1ccc(C(F)(F)F)cc1Cl [WO2025049746, Example 374]
